Legend:
Test in all cases: Planktonic bactericidal assay, 4 h
Settings in all cases: 4 h exposure
MDR-P. aeruginosa = assay type: cell-based, multidrug-resistant P. aeruginosa (ATCC #BAA-2110)
Method: (§1) Planktonic bactericidal assay. Bacterial cultures of P. aeruginosa, E. coli, E. faecalis, S. aureus, multidrug-resistant (MDR) P. aeruginosa, and methicillin-resistant S. aureus were grown from frozen (−80° C.) stocks overnight in TSB (3 mL) at 37° C. An aliquot (1 mL) of the overnight solution was recultured in fresh TSB (50 mL) to a concentration of 10^8 CFU mL^−1 and subsequently diluted to 10^6 CFU mL^−1 in PBS (10 mM, pH 7.4). Weighed samples of control (non-NO-releasing) HA, NO-releasing HA, or neomycin sulfate were dissolved in PBS and titrated with 1 M HCl to adjust the pH to 7.4.
(§2) Samples were added to a 96-well polystyrene plate and serially diluted in PBS so that each well contained 100 μL of control HA, NO-releasing HA, or neomycin. Bacterial solution containing 10^6 CFU mL^−1 (100 μL; 1 vol % TSB supplemented PBS) was added to each well, giving final HA concentrations in the range of 0.25 to 32 mg mL^−1 or neomycin concentrations from 0.5 to 1024 μg mL^−1. The 96-well plate was then incubated at 37° C. for 4 h with gentle shaking. […] Viability of bacteria following treatment with HA or neomycin was determined using a Flash & Go colony counter (IUL; Farmingdale, N.Y.). […] The NO dose required for bactericidal action was calculated by multiplying the MBC4 h of the NO-releasing HA samples (mg mL^−1) with the total NO released in PBS (pH 7.4; μmol NO mg^−1 HA) at 4 h. […]

S. aureus = assay type: cell-based, Staphylococcus aureus (ATCC #29213)
Method: as §1, §2

E. faecalis = assay type: cell-based, Enterococcus faecalis (ATCC #29212)
Method: as §1, §2

MRSA = assay type: cell-based, methicillin-resistant S. aureus (ATCC #33591)
Method: as §1, §2

E. coli = assay type: cell-based, Escherichia coli (ATCC #43888)
Method: as §1, §2

P. aeruginosa = assay type: cell-based, Pseudomonas aeruginosa (ATCC #47085)
Method: as §1, §2

neomycin sulfate
Dose of neomycin for 3-log reduction (MDR-P. aeruginosa): 128 μg mL^−1 | Dose of neomycin for 3-log reduction (S. aureus): 2 μg mL^−1 | Dose of neomycin for 3-log reduction (E. faecalis): 64 μg mL^−1 | Dose of neomycin for 3-log reduction (MRSA): >1024 μg mL^−1 | Dose of neomycin for 3-log reduction (E. coli): 1 μg mL^−1 | Dose of neomycin for 3-log reduction (P. aeruginosa): 32 μg mL^−1

From US11421044B2, “Nitric oxide-releasing antibacterial polymers and scaffolds fabricated therefrom and methods pertaining thereto” (THE UNIVERSITY OF NORTH CAROLINA AT CHAPEL HILL, priority 2018, dated 2022)
